Earlier results, collected in US7906537B2, “Substituted p-diaminobenzene derivatives” (priority 2003, dated 2011).

Legend:
[1] = test system: animal models of anxiety-like behaviour; conditions: in vivo
[2] = test system: animal models of neuropathic pain; conditions: in vivo
[3] = test system: K(+) current in neuronal cells
epileptic patients = conditions: clinical trials
hippocampal kindling = conditions: rat
amygdala kindling model = conditions: in vivo
[4] = test system: electrically induced seizures, seizures induced chemically by pentylenetetrazole, picrotoxin and NMDA, DBA/2 mouse; conditions: after oral and intraperitoneal administration in rats and mice
[5] = test system: kainic acid-induced status epilepticus; conditions: following kainic acid-induced status epilepticus in the rat
[6] = test system: animal models of ethanol withdrawal syndrome; conditions: in vivo

Compound	activity in animal models of anxiety-like behaviour [1]	effect in animal models of neuropathic pain [2]	activation of K(+) current [3]	incidence of seizures in epileptic patients (epileptic patients)	progression of hippocampal kindling (hippocampal kindling)	activity in the amygdala kindling model of complex partial seizures (amygdala kindling model)	activity in a range of anticonvulsant tests [4]	limbic neurodegeneration and expression of markers of apoptosis [5]	effect in animal models of ethanol withdrawal syndrome [6]
CCOC(=O)Nc1ccc(NCc2ccc(F)cc2)cc1N [Retigabine, N-(2-amino-4-(4-fluorobenzylamino)-phenyl)carbamic acid ethyl ester]	active	beneficial	activate a K(+) current	effectiveness in reducing the incidence of seizures	delay the progression of hippocampal kindling	active	active	prevent limbic neurodegeneration and the expression of markers of apoptosis	–
NCC1(CC(=O)O)CCCCC1 [gabapentin]	–	–	–	–	–	–	–	–	very effective
